# Test results published in the NIST ThermoML archive (doi:10.1016/j.jct.2018.12.025).
# ± gives the expanded uncertainty stated by the source.
# Assay: relative permittivity at various frequencies (dimensionless)
# Conditions: 96.5 kPa, Liquid, Frequency=1 MHz, Parallel plate capacitor
structure (smiles),measurement,setting,value
O [water],relative permittivity,298.15 K,79.68 ± 3
same,relative permittivity,308.15 K,75.51 ± 2.8
same,relative permittivity,318.15 K,71.42 ± 2.7
same,relative permittivity,328.15 K,68.44 ± 2.6
same,relative permittivity,338.15 K,64.51 ± 2.4
same,relative permittivity,348.15 K,60.78 ± 2.3
